Measurements from publication PMC9587079, “Bioavailability of inhaled or ingested PFOA adsorbed to house dust” (Environmental Science and Pollution Research International, 2022).
“Also recorded” adds a separate entry of the source. Like-named read-outs stand apart in the source and are kept apart here.

Columns and labels:
[1] = PFOA in terminal plasma, lung lavage and tissues 48 h after dust exposure; assay type: in vivo, rat; settings: for Kp at 48 h / concentration at 48 h: male, RccHan:WIST, rat
[2] = PFOA in plasma over time after inhalation or gavage of PFOA-coated house dust; assay type: in vivo, rat; settings: for Cmax: male, RccHan:WIST, rat, plasma
[3] = cited from earlier work
albumin in serum = system: albumin in serum; design: method as in Han et al. [2003]; settings: ref Han et al. [2003]; cited from earlier work
[4] = design: method as in Li et al. [2017]; settings: rats; ref Li et al. [2017]; cited from earlier work
[5] = Vapor concentration of PFOA at outlet of vapor generation chamber; assay type: physicochemical; settings: room temperature, after 24 h
Procedure: The gas phase of PFOA was collected with OSHA Versatile Sampling (OVS) tubes with XAD-2 resin (SKC). Samples were collected at a flowrate of 0.04 L/min using vacuum sampling pumps. Collection times were set for 5 min typically for a 200 mL air sample. PFOA from the OVS sampler was extracted prior to analysis into two fractions with each fraction placed into individual PP tubes. Fraction A consisted of the glass or quartz fiber filter and first section of XAD resin beads and the first polyurethane foam (PUF) filter. Fraction B consisted of the second section of XAD resin beads and the back PUF filter. All samples were spiked with 50 μL of 1 μg/mL C13 solution, the surrogate standard. Each section was placed in PP tube to which 5 mL of HPLC-grade methanol was added. The tube was shaken for 60 min on a mechanical flatbed shaker set at ∼2 cycles per second. Approximately 4.5 mL of each extract was transferred to a pre-baked amber glass vial by filtering through a Gelman GHP Acrodisc (Pall Gelman Laboratory, Ann Arbor, MI, USA.). Each extract of consisting of 200 μL was transferred to an autosampler vial with PP insert. […]
The vapor concentration of PFOA (Cpfoa) measured at the outlet of the vapor pressure generation chamber is described in detail in Supplementary Information and shown in Fig. S1. […]

[6] = Sorption of PFOA on house dust in near saturated vapor; assay type: physicochemical; settings: more than 3 weeks
Procedure: To achieve a sufficient concentration of PFOA on the house dust, a saturated vapor concentration procedure was created to adsorb/absorb PFOA on the house dust. This was done to ensure detectability in the tissue samples. Ten grams of solid pure perfluorooctanoic acid was placed in a glass jar bottle, capped with a lid, shaken and stored at room temperature (25 ± 0.1 °C) to allow vaporization and pre-equilibration of PFOA on the walls of the glass jars. Following equilibration of PFOA in the air and on walls of jars, a portion of 5 ± 0.03 g dust was placed in a polypropylene (PP) round plate inside each of four jars. These were capped and kept under the controlled room temperature and atmospheric pressure over time, mimicking a residential indoor environment, but with a saturated vapor of PFOA. Repeated samples of dust were withdrawn from the jars over time and analyzed for the PFOA content. This procedure was repeated over time for up to 6 weeks until a stable equilibrium concentration of PFOA was attained adsorbed to the dust. […]
During the adsorption process, the concentration of PFOA adsorbed to the dust was periodically measured after a rotatory mixing of dust samples with a tube rotator or 24 h prior to the extraction procedures and instrumental analysis. […]

[7] = design: method as in Hinderliter et al. [2006]; settings: ref Hinderliter et al. [2006], cited from earlier work
[8] = design: method as in Li et al. [2017]; settings: humans, calculated; ref Li et al. [2017]; cited from earlier work

O=C(O)C(F)(F)C(F)(F)C(F)(F)C(F)(F)C(F)(F)C(F)(F)C(F)(F)F [PFOA, Perfluorooctanoic acid]
Liver:plasma ratio of PFOA concentration ([1]; 48 h, inhalation): 5.28 ± 1.3 | Kidney:plasma ratio of PFOA concentration ([1]; 48 h, oral gavage): 1.72 ± 0.3 | Liver:plasma ratio of PFOA concentration ([1]; 48 h, oral gavage): 4.89 ± 1.0 | Levels of PFOA in plasma, liver and kidney, inhalation compared to oral ([1]; 48 h post exposure): twice as high | PFOA concentration ([1]; kidney, 48 h, inhalation): 3.84 ± 0.8 µg/g | PFOA concentration ([1]; kidney, 48 h, oral gavage): 3.15 ± 0.2 µg/g | PFOA concentration ([1]; liver, 48 h, inhalation): 10.1 ± 0.9 µg/g | PFOA concentration ([1]; liver, 48 h, oral gavage): 8.94 ± 0.5 µg/g | PFOA concentration ([1]; lung, 48 h, inhalation): 31.3 ± 4.0 µg/g | PFOA concentration ([1]; lung, 48 h, oral gavage): 1.68 ± 0.3 µg/g | Kp at 48 h ([1]; kidney, 364 μg PFOA/kg BW, 48 h, oral gavage, read-out: Kidney:plasma ratio of PFOA concentration): 1.72 | concentration at 48 h ([1]; kidney, inhaled, 164 μg PFOA/kg BW, kidney, 48 h, inhalation): 3840 ± 760 ng/g | Kp at 48 h ([1]; kidney, inhaled, 164 μg PFOA/kg BW, 48 h, inhalation, read-out: Kidney:plasma ratio of PFOA concentration): 2.02 ± 0.7 | concentration at 48 h ([1]; kidney, po, 364 μg PFOA/kg BW, kidney, 48 h, oral gavage): 3150 ± 190 ng/g | Kp at 48 h ([1]; liver, 364 μg PFOA/kg BW, 48 h, oral gavage, read-out: Liver:plasma ratio of PFOA concentration): 4.89 | concentration at 48 h ([1]; liver, inhaled, 164 μg PFOA/kg BW, liver, 48 h, inhalation): 10100 ± 880 ng/g | Kp at 48 h ([1]; liver, inhaled, 164 μg PFOA/kg BW, 48 h, inhalation, read-out: Liver:plasma ratio of PFOA concentration): 5.28 | concentration at 48 h ([1]; liver, po, 364 μg PFOA/kg BW, liver, 48 h, oral gavage): 8940 ± 500 ng/g | concentration at 48 h ([1]; lung lavage (BALF), inhaled, 164 μg PFOA/kg BW, lung lavage, 48 h, inhalation): 9980 ± 630 ng/mL | concentration at 48 h ([1]; lung lavage (BALF), po, 364 μg PFOA/kg BW, lung lavage, 48 h, oral gavage): 310 ± 20 ng/mL | concentration at 48 h ([1]; lung, inhaled, 164 μg PFOA/kg BW, lung, 48 h, inhalation): 31300 ± 4000 ng/g | concentration at 48 h ([1]; lung, po, 364 μg PFOA/kg BW, lung, 48 h, oral gavage): 1680 ± 310 ng/g | concentration at 48 h ([1]; plasma, inhaled, 164 μg PFOA/kg BW, terminal plasma, 48 h, inhalation of PFOA-coated dust (164 μg PFOA/kg BW)): 2030 ± 320 ng/mL | concentration at 48 h ([1]; plasma, po, 364 μg PFOA/kg BW, terminal plasma, 48 h, oral gavage of PFOA-coated dust (364 μg PFOA/kg BW)): 1870 ± 350 ng/mL | Distribution of PFOA to liver and kidney, inhalation compared to oral gavage ([1]; post exposure): ~2.5 times | PFOA concentration ([1]; terminal plasma, 48 h, inhalation of PFOA-coated dust (164 μg PFOA/kg BW)): 1.97 ± 0.32 ng/µL | Cmax ([2]; inhaled or intranasal, inhalation group, n = 4, 164 μg PFOA/kg BW): 3100 ± 320 ng/mL | Cmax ([2]; oral gavage group, n = 4, 364 μg PFOA/kg BW): 1730 ± 170 ng/mL | Time of Cmax post exposure ([2]; oral gavage group): 3 h | Plasma PFOA (Cmax, 3 h) following inhalation compared to oral exposure ([2]; same deposition level of exposure): almost four times higher; also recorded: approximately four times higher | Absorption over the gastrointestinal tract ([3]; oral exposure in animal studies, ammonium salt: APFO, ref DeWitt. [2015]): virtually all of it was absorbed | Delivered dose absorbed over the gastro intestinal ([3]; oral exposure, ref US EPA [2016], Pizzurro et al. [2019], DeWitt. [2015]): more than 90% | PFOA bound to albumin in serum (albumin in serum): more than 90% | Half-time [4]: a few days | Stable (saturation) vapor concentration of PFOA [5]: 1.37e-05 µg/L | Steady state concentration of PFOA on house dust [6]: 0.335 g/g coated dust | Concentration of PFOA in plasma ([7]; 6-h inhalation exposure, 1–25 mg/m^3 aerosolized solution): 1000 to 25000 ng/mL | Plasma level in male compared to females ([7]; end of the 6-h exposure time): almost twice as high | Half-time [8]: 2.3–8.5 years
